# System: human platelets (aggregation induced by PAF)
# Experiment: inhibition of PAF-induced blood platelet aggregation in vitro
# Assay type: cell-based
# Conditions: Homo sapiens, read-out: IC50 (concentration for 50% inhibition of aggregation)
# Procedure: To determine the PAF-antagonistic action of substances, use was made of the aggregation of human platelets induced in vitro by PAF. To obtain platelet-rich plasma (PRP), blood is taken from an uncompressed vein using a plastic syringe containing 3.8% strength sodium citrate solution. The ratio between sodium citrate solution and blood is 1:9. After careful mixing, the citrated blood is centrifuged at 150×g (1200 rpm) for 20 minutes. The platelet aggregation is measured by the method worked out by Born and Cross (G. V. R. Born and M. J. Cross, J. Physiol. 168, 178 (1963)), with PAF being added to the continuously stirred PRP to initiate the aggregation. The test substance is added in a volume of 10 ul in each case 2-3 minutes before initiation of the aggregation. The solvents used are either distilled water, ethanol and/or dimethyl sulphoxide. Blanks contain corresponding volumes of these solvents. After the initial absorption has been recorded (2-3 minutes), aggregation is induced with PAF (5×10^-8 M). To assess the effects of substances, use is made of the maximum of the first aggregation wave. The maximum absorption rate (=maximum aggregation×100%) induced by PAF is, in each case, simultaneously checked in a parallel mixture (=blank in one channel of the two-channel aggregometer) for each test mixture (second channel) and used as the 100% value. The aggregation obtained under the influence of the test substance is […].
row,SMILES,IC50
1,"Cc1nnc2n1-c1ccc(Cl)cc1C(c1ccccc1Cl)=NC2 [Triazolam, triazolam, reference compound]",9000 nM
2,COC(=O)CCNC(=O)c1ccc2c(c1)C(c1ccccc1Cl)=NCc1ncc(C)n1-2 [compound 2],900 nM
3,Cc1nnc2n1-c1ccc(C(=O)NCC(=O)N3CCOCC3)cc1C(c1ccccc1Cl)=NC2 [compound 4],700 nM
4,COC(=O)C[C@H](NC(=O)c1ccc2c(c1)C(c1ccccc1Cl)=NCc1nnc(C)n1-2)C(=O)OC [compound 5],1200 nM
5,Cc1nnc2n1-c1ccc(C(=O)NC3CCSC3=O)cc1C(c1ccccc1Cl)=NC2 (stereo not drawn) [compound 11],3500 nM
6,Cc1nnc2n1-c1ccc(CC(=O)NCC(=O)N3CCOCC3)cc1C(c1ccccc1Cl)=NC2 [compound 12],1100 nM
7,COC(=O)[C@@H](CCSC)NC(=O)c1ccc2c(c1)C(c1ccccc1Cl)=NCc1nnc(C)n1-2 [compound 15],900 nM
8,CCN(CC)C(=O)[C@H](CC(C)C)NC(=O)c1ccc2c(c1)C(c1ccccc1Cl)=NCc1nnc(C)n1-2 [compound 16],400 nM
9,Cc1nnc2n1-c1ccc(C(=O)N3CCC[C@H]3C(=O)N3CCOCC3)cc1C(c1ccccc1Cl)=NC2 [compound 18],8100 nM
10,Cc1nnc2n1-c1ccc(C(=O)N[C@H](C(=O)NC(C)C)C(C)C)cc1C(c1ccccc1Cl)=NC2 [compound 27],700 nM
11,COc1nnc2n1-c1ccc(C(=O)NCC(=O)N3CCOCC3)cc1C(c1ccccc1Cl)=NC2 [compound 33],2500 nM
12,C[C@H](NC(=O)c1ccc2c(c1)C(c1ccccc1Cl)=NCc1nnc(C3CC3)n1-2)C(=O)N1CCCC1 [compound 35],900 nM

# Same assay, conditions: read-out: IC50 (concentration for 50% inhibition of aggregation), Table A, human PRP, PAF 5×10^-8 M
row,SMILES,IC50
1,Cc1nnc2n1-c1ccc(C(=O)NCC(=O)N3CCOCC3)cc1C(c1ccccc1Cl)NC2 (stereo not drawn) [compound 21],1900 nM
2,Cc1nnc2n1-c1sc(C(=O)N(C)CC(=O)N3CCOCC3)cc1C(c1ccccc1Cl)=NC2 [compound 28],1900 nM
3,Cc1nnc2n1-c1sc(CCC(=O)NCC(=O)N3CCOCC3)cc1C(c1ccccc1Cl)=NC2 [compound 48],600 nM

# From patent US5116971A, “Substituted-1,4-diazepines” (Boehringer Ingelheim KG, priority 1986, dated 1992)
